Active and inactive are the calls of the source.
How the values were obtained:
[1] = molecular target: T1, Sentrin-specific protease 7 (Homo sapiens, UniProt Q9BQF6); assay type: functional;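 further: Luminescence-based dose-response confirmation of ultra-high-throughput screening hits, measuring inhibition of SENP7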
T1 sequence (Q9BQF6 whole entry): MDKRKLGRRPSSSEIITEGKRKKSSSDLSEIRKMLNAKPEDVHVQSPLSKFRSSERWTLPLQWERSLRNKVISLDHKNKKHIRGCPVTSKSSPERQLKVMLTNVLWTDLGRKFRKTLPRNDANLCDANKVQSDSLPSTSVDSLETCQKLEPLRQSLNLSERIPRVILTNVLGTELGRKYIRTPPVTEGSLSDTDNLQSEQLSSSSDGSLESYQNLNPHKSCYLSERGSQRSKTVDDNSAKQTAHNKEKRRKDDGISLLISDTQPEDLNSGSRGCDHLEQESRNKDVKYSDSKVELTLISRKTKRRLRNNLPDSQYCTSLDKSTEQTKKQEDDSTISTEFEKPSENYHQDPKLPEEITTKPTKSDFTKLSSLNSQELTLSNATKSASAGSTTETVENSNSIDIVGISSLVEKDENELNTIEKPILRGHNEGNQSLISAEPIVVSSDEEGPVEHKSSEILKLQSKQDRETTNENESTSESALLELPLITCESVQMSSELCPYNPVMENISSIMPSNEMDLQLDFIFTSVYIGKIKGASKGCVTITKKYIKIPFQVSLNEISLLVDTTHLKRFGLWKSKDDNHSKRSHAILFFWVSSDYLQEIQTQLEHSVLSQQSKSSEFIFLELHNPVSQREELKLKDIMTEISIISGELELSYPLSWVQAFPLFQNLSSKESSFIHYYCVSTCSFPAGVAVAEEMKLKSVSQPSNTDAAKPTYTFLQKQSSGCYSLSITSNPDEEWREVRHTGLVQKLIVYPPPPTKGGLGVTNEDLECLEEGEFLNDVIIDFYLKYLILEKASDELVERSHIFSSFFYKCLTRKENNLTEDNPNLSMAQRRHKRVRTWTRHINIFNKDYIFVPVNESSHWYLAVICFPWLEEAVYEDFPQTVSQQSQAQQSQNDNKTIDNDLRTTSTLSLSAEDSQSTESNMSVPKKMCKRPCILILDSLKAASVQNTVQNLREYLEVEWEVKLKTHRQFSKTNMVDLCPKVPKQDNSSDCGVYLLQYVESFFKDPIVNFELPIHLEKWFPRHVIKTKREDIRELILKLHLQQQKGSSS

[2] = molecular target: T2, Sentrin-specific protease 6 (Homo sapiens, UniProt Q9GZR1); assay type: functional;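 further: Luminescence-based dose-response confirmatory assay of SENP6 inhibition, following up an ultra-high-throughput screen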
T2 sequence (Q9GZR1 whole entry): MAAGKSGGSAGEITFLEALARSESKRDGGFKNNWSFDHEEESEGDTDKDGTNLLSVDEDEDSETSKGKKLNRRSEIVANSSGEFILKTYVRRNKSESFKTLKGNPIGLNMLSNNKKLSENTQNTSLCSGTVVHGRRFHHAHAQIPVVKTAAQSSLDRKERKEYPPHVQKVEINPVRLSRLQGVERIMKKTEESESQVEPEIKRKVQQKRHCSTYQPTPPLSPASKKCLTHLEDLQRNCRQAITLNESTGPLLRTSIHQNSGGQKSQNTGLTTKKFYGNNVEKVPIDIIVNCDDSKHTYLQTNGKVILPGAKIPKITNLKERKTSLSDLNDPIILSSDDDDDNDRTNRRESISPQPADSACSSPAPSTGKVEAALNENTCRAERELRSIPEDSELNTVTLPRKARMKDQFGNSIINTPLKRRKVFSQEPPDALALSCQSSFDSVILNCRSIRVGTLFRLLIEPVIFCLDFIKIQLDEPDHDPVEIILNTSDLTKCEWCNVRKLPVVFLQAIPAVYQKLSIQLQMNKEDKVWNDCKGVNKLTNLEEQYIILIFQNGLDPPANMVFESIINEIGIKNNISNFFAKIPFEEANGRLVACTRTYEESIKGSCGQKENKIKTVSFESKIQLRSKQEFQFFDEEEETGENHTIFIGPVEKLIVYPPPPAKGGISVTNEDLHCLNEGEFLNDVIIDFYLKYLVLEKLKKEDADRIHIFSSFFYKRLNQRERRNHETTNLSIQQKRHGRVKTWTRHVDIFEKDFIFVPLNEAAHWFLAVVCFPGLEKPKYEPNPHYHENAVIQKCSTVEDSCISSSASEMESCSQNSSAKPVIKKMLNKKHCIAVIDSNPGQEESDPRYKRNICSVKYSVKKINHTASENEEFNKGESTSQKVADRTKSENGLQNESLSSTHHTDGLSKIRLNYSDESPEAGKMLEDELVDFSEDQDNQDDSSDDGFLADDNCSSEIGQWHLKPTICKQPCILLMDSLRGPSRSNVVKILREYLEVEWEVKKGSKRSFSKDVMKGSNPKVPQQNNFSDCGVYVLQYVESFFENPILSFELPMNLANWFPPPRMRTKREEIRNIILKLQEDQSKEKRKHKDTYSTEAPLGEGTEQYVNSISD

Caspase-3 = molecular target: T3, Caspase-3 (Homo sapiens, UniProt P42574); assay type: functional;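 further: Dose-response selectivity test against caspase-3 for candidate inhibitors of sentrin-specific proteases (SENPs)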
T3 sequence (P42574 whole entry): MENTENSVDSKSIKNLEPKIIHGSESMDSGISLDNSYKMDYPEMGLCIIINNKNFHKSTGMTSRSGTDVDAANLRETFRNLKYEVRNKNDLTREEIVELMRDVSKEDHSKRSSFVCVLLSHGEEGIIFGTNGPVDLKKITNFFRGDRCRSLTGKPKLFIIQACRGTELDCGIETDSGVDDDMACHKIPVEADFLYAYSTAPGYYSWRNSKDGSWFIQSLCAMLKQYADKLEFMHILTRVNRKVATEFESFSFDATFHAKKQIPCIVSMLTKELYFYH

[3] = molecular target: T4, Sentrin-specific protease 8 (Homo sapiens, UniProt Q96LD8); assay type: functional;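 further: luminescence read-out of SENP8 inhibition, dose-response confirmation following an ultra-high-throughput screen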
T4 sequence (Q96LD8 whole entry): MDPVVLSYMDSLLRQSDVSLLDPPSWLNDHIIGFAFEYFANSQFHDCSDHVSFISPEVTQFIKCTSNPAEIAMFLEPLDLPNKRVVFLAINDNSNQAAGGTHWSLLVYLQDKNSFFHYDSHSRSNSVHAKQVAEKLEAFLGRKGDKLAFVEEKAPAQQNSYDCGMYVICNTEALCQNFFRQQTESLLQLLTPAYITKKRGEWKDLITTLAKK

[4] = molecular target: T5, Zinc finger protein mex-5 (Caenorhabditis elegans, UniProt Q9XUB2); test: MEX-5/TCR-2 RNA interaction inhibitors, dose response, biochemical, C. elegans, fluorescence polarization (AID 1960)
T5 sequence (Q9XUB2 whole entry): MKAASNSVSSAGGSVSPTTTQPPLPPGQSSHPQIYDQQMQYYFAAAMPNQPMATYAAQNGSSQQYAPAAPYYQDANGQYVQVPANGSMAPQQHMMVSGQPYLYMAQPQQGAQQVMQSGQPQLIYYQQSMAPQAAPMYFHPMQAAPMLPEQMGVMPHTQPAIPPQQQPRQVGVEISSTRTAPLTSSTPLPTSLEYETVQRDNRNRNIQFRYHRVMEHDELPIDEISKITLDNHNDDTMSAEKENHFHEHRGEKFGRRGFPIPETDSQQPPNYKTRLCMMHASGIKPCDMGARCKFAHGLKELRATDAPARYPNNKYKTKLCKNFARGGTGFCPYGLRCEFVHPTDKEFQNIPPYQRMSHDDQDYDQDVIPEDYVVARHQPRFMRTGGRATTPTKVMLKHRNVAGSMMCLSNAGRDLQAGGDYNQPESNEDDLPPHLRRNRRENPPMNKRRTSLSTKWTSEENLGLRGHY

[5] = molecular target: T6, High affinity choline transporter 1 (Homo sapiens, UniProt Q9GZV3); test: CHT inhibitors, dose response, cell-based, 10-point CRC, membrane potential dye (AID 588401); assay type: functional;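 further: membrane potential dye fluorescence of choline-evoked depolarization via CHT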
T6 sequence (Q9GZV3 whole entry): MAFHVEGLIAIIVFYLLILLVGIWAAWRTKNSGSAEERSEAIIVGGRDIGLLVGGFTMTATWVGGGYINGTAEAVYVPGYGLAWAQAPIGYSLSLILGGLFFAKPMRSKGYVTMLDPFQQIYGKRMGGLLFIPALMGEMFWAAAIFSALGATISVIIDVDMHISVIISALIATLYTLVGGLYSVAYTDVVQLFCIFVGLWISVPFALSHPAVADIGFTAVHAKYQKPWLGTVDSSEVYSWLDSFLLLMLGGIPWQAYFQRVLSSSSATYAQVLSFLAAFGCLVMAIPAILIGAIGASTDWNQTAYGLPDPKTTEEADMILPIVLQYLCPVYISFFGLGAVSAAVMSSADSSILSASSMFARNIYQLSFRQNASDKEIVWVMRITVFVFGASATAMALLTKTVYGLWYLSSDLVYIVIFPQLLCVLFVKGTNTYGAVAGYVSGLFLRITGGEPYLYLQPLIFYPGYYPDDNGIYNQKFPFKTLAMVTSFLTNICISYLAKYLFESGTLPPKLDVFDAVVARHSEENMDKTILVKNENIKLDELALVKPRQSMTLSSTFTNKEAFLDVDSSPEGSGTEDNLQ

[6] = molecular target: T7, RNA-binding protein pos-1 (Caenorhabditis elegans, UniProt G5EF15); test: inhibitors of POS-1/mex-3 RNA binding, dose response, biochemical, fluorescence polarization (AID 1964);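 further: purified POS-1 fused to maltose binding protein made in E. coli; potency of compounds blocking POS-1 binding to fluorescent RNA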
T7 sequence (G5EF15 whole entry): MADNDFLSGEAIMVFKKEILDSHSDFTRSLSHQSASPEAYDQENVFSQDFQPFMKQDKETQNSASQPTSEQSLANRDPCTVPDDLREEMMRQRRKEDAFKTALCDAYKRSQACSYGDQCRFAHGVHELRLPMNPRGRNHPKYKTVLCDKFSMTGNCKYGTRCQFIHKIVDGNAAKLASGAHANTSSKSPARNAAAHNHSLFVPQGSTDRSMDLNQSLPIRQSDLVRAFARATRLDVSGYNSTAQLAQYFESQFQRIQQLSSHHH

[7] = molecular target: T6, High affinity choline transporter 1; test: CHT inhibitors, dose response, cell-based, 5-point CRC, membrane potential dye (AID 504840); assay type: functional
Protein skinhead-1 = molecular target: T8, Protein skinhead-1 (Caenorhabditis elegans, UniProt P34707); assay type: functional
T8 sequence (P34707 whole entry): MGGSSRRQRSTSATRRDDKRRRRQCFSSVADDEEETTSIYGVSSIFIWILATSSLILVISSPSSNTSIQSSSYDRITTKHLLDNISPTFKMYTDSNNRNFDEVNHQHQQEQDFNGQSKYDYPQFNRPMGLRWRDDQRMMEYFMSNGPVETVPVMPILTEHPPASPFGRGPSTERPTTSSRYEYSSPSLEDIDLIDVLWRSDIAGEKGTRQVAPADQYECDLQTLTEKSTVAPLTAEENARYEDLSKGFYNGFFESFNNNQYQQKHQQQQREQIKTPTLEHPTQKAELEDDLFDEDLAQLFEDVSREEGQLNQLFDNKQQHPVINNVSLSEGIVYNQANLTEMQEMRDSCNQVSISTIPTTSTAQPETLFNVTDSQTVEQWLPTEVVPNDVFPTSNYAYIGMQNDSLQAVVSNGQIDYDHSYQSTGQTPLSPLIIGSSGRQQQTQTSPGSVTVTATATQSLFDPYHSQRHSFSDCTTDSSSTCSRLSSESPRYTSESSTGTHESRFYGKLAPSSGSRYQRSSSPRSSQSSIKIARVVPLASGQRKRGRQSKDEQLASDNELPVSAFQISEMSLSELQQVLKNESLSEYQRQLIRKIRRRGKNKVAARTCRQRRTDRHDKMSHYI

IC50 [1] | IC50 [2] | IC50 (Caspase-3) | EC50 [4] | IC50 [5] | EC50 [6] | IC50 [7] | IC50 (Protein skinhead-1) | SMILES | IC50 [3]
2.96 µM (active) | 4.07 µM (active) | 15.8 µM (active) |  |  |  |  |  | Brc1ccc(/C=N/Nc2ccccn2)cc1 | > 100 µM (inactive)
 |  |  | 7.57 µM (inconclusive) | 6.23 µM (active) | > 300 µM (inconclusive) | 8.88 µM (active) |  | Cc1n[nH]c(C)c1Sc1ccccc1/N=C/c1cc(Cl)cc([N+](=O)[O-])c1O | 
 |  |  |  | 1 µM (active) |  | 2.83 µM (active) |  | O=C(C[n+]1cccc(Br)c1)c1ccc(-c2ccccc2)cc1 | 
 |  |  |  | 4.09 µM (active) |  | 5.01 µM (active) |  | CCC(C)c1ccc(NC(S)=NC(C)C2CCCO2)cc1 (stereo unspecified) | 
2.65 µM (active) | 3.19 µM (active) | 3.19 µM (active) |  |  |  |  | > 100 µM (inactive) | Clc1ccc(-c2nnc(-c3ccccc3Cl)o2)cc1 | 8.03 µM (active)
> 100 µM (inactive) | > 100 µM (inactive) | > 100 µM (inactive) |  |  |  |  |  | O=C(/C=C/c1ccco1)Nc1ccc(N2CCCC2)cc1 | > 100 µM (inactive)
